Source: US7049311B1, “Pyrrolbenzodiazepines” (Spirogen Limited, priority 1998, dated 2006)
Like-named read-outs stand apart in the source and are kept apart here.

Legend:
A2780 = assay: Ovarian carcinoma cytotoxicity assay; type: cell-based, human; conditions: Homo sapiens
Method: (§1) Compounds of the invention (and Anthramycin as a comparison) were evaluated for their cytotoxic activity in ovarian cell lines by Dr Lloyd R. Kelland's group at The Institute of Cancer Research, Sutton, UK. The five cell lines investigated were SKOV-3, A2780/A2780cisR and CH1/CH1cisR (cis R denotes that the cell line is resistant to cisplatin).
(§2) Single viable cells were seeded in growth medium (160 μL) in […] microtitre plates and allowed to attach overnight. […] After 96 hours, the medium was removed and the remaining cells fixed by exposure to 10% trichloroacetic acid on ice for 30 minutes. The wells were then washed 3-4 times with tap water, air dried overnight and treated with 100 μL of sulphorhodamine B (0.4%) dissolved in 1% acetic acid. Staining was allowed to continue for 10-15 minutes, then the wells were washed 3-4 times with 1% acetic acid, air dried and then added to Tris base (100 μL of 10 mM). Plates were then shaken and absorbance readings at 540 nm were determined using a plate reader. By using the Quattro-Pro software package, the IC50 values were calculated from plots of concentration versus percentage absorbance (compared with 8 untreated wells).

A2780cisR [1] = assay: Ovarian carcinoma cytotoxicity assay; type: cell-based, human; conditions: Homo sapiens, A2780cisR
Method: as §1, §2

CH1 = assay: Ovarian carcinoma cytotoxicity assay; type: cell-based; conditions: Homo sapiens
Method: as §1, §2

CH1cisR = assay: Ovarian carcinoma cytotoxicity assay; type: cell-based; conditions: Homo sapiens, CH1cisR
Method: as §1, §2

SKOV-3 = assay: Ovarian carcinoma cytotoxicity assay; type: cell-based; conditions: Homo sapiens
Method: as §1, §2

UACC-62 = assay: NCI in vitro cytotoxicity screen; type: cell-based; conditions: Homo sapiens, UACC-62, 48 h, read-out: LC50
Method: (§3) The National Cancer Institute (NCI), Bethesda, Md., USA has available an in vitro cytotoxicity screen which consists of approximately 60 human tumour cell lines against which compounds are tested at a minimum of five concentrations each differing 10-fold. A 48 hour continuous exposure protocol is used, where cell viability or growth is estimated with an SRB protein assay.
(§4) The test compounds were evaluated against approximately 60 human tumour cell lines. The NCI screening procedures were described in detail by Monks and co-workers (Monks, A et al., Journal of the National Cancer Institute, 1991, 83, 757). Briefly, cell suspensions were diluted according to the particular cell type and the expected target cell density (5000-40,000 cells per well based on cell growth characteristics), and added by pipette (100 μL) into 96-well microtitre plates. The cells were allowed a preincubation period of 24 hours at 37° C. for stabilisation. Dilutions at twice the intended test concentration were added at time zero in 100 μL aliquots to the wells. The test compounds were evaluated at five 10-fold dilutions (10^−4, 10^−5, 10^−6, 10^−7 and 10^−[…]). The test compounds were incubated for 48 hours in 5% CO2 atmosphere and 100% humidity. The cells were then assayed using the sulphorhodamine B assay. A plate reader was used to read the optical densities and a microcomputer processed the readings into LC50 values, which is the dosage required to kill half of the cells.

KM12 = assay: NCI in vitro cytotoxicity screen; type: cell-based; conditions: Homo sapiens, KM12, 48 h, read-out: LC50
Method: as §3, §4

SNB-75 = assay: NCI in vitro cytotoxicity screen; type: cell-based; conditions: Homo sapiens, SNB-75, 48 h, read-out: LC50
Method: as §3, §4

MALME-3M = assay: NCI in vitro cytotoxicity screen; type: cell-based; conditions: Homo sapiens, Malme-3M, 48 h, read-out: LC50
Method: as §3, §4

HCC-2998 = assay: NCI in vitro cytotoxicity screen; type: cell-based; conditions: Homo sapiens, HCC 2998, 48 h, read-out: LC50
Method: as §3, §4

NCI-H460 = assay: NCI in vitro cytotoxicity screen; type: cell-based; conditions: Homo sapiens, NCI-H460, 48 h, read-out: LC50
Method: as §3, §4

COLO 205 = assay: NCI in vitro cytotoxicity screen; type: cell-based; conditions: Homo sapiens, COLO 205, 48 h, read-out: LC50
Method: as §3, §4

RXF 393 = assay: NCI in vitro cytotoxicity screen; type: cell-based; conditions: Homo sapiens, RXF 393, 48 h, read-out: LC50
Method: as §3, §4

M14 = assay: NCI in vitro cytotoxicity screen; type: cell-based; conditions: Homo sapiens, M14, 48 h, read-out: LC50
Method: as §3, §4

MDA-MB-435 = assay: NCI in vitro cytotoxicity screen; type: cell-based; conditions: Homo sapiens, MDA-MB-435, 48 h, read-out: LC50
Method: as §3, §4

SF-539 = assay: NCI in vitro cytotoxicity screen; type: cell-based; conditions: Homo sapiens, SF-539, 48 h, read-out: LC50
Method: as §3, §4

MDA-N = assay: NCI in vitro cytotoxicity screen; type: cell-based; conditions: Homo sapiens, 48 h, read-out: LC50
Method: as §3, §4

SK-MEL-28 = assay: NCI in vitro cytotoxicity screen; type: cell-based; conditions: Homo sapiens, SK-MEL-28, 48 h, read-out: LC50
Method: as §3, §4

NCI-H522 = assay: NCI in vitro cytotoxicity screen; type: cell-based; conditions: Homo sapiens, NCI-H522, 48 h, read-out: LC50
Method: as §3, §4

[2] = tested on: human ovarian carcinoma cell line A2780; assay: Cytotoxicity in A2780 (Example 9); type: cell-based; conditions: read-out: IC50 A2780
Method: (§5) Relative to the parental line, the A2780cisR subline is known to have elevated GSH levels, an increased level of repair of DNA-cisplatin adducts, and a decreased ability to uptake cisplatin (M. Smellie, et al., Br. J. Cancer, 1994, 70, 48).
(§6) The results, which were obtained by incubating the cells with the compounds for 96 hours at 37° C., and assessing the cell number using Sulforhodamine B, are presented in the table below: […]

A2780cisR [3] = assay: Cytotoxicity in cisplatin-resistant A2780cisR (Example 9); type: cell-based, human
Method: as §5, §6

SK-MEL-2 = assay: NCI in vitro cytotoxicity screen; type: cell-based; conditions: Homo sapiens, SK-MEL-2, 48 h, read-out: LC50
Method: as §3, §4

UACC-257 = assay: NCI in vitro cytotoxicity screen; type: cell-based; conditions: Homo sapiens, UACC-257, 48 h, read-out: LC50
Method: as §3, §4

calf thymus DNA = assay: DNA helix melting temperature assay; type: binding; conditions: [PBD]:[DNA] ratio of 1:5, calf thymus DNA
Method: The first assay, which is described in G. B. Jones, et al., Anti-Cancer Drug Des., 1990, 5, 249, which is incorporated herein by reference, determines the effect of the test compound on the helix melting temperature of DNA. This assay is designed to give an indication of the strength and extent of cross-linking of the DNA strands by the test compound (i.e. a measure of the stabilisation of the DNA upon ligand binding).
The melting temperature was determined for a 1:5 molar ratio of [ligand] [DNA], where the calf thymus DNA concentration is […] in aqueous sodium phosphate buffer (10 mM sodium phosphate+1 mM EDTA, pH 7.00±0.01). For calf thymus DNA at pH 7.00±0.01, the melting temperature is 67.83±0.06° C. (mean value from 30 separate determinations).

NCI-H23 = assay: NCI in vitro cytotoxicity screen; type: cell-based; conditions: Homo sapiens, NCI-H23, 48 h, read-out: LC50
Method: as §3, §4

[4] = tested on: approximately 60 human tumour cell lines; assay: NCI in vitro cytotoxicity screen, whole panel; type: cell-based
Method: as §3
as §4, with “The test compounds were incubated for 48 hours in 5% CO2 atmosphere and 100% humidity. The cells were then assayed using the sulphorhodamine B assay.” left out

SK-MEL-5 = assay: NCI in vitro cytotoxicity screen; type: cell-based; conditions: Homo sapiens, SK-MEL-5, 48 h, read-out: LC50
Method: as §3, §4

[5] = A2780, 96 hours, sulphorhodamine B, read-out: IC50 A2780
[6] = cisplatin-resistant, 96 hours, sulphorhodamine B, read-out: IC50 A2780cisR
[7] = CH1, 96 hours, sulphorhodamine B, read-out: IC50 CH1
[8] = cisplatin-resistant, 96 hours, sulphorhodamine B, read-out: IC50 CH1cisR
[9] = SK-OV-3, 96 hours, sulphorhodamine B, read-out: IC50 Skov3
[10] = A2780, 96 h, read-out: IC50 A2780, 96 hours, sulphorhodamine B
[11] = 96 h, read-out: IC50 A2780cisR, cisplatin-resistant, 96 hours, sulphorhodamine B
[12] = CH1, 96 h, read-out: IC50 CH1, 96 hours, sulphorhodamine B
[13] = 96 h, read-out: IC50 CH1cisR, cisplatin-resistant, 96 hours, sulphorhodamine B
[14] = SK-OV-3, 96 h, read-out: IC50 Skov3, 96 hours, sulphorhodamine B

Row | SMILES | IC50 (A2780; [5]) | IC50 (A2780cisR [1]; [6]) | IC50 (CH1; [7]) | IC50 (CH1cisR; [8]) | IC50 (SKOV-3; [9]) | CC50 (UACC-62) | CC50 (MALME-3M) | CC50 (HCC-2998) | CC50 (COLO 205) | CC50 (RXF 393) | CC50 (MDA-MB-435) | CC50 (SK-MEL-28) | CC50 (SK-MEL-2) | further results
1 | COC(=O)CC1=CN2C(=O)c3cc(OC)c(OCc4ccccc4)cc3N=C[C@@H]2C1 [UP2003 (24)] | 14.5 nM | 120 nM | 16 nM | 40 nM | 12 nM | 700 nM | 700 nM | 5200 nM | 1400 nM |  |  |  |  | CC50 (KM12): 9500 nM; CC50 (SNB-75): 6000 nM; CC50 (NCI-H460): 7600 nM
2 | COc1cc2c(cc1OCc1ccccc1)N=C[C@@H]1CC(=O)CN1C2=O [UP2067 (172)] |  |  |  |  |  | 3000 nM | 7400 nM |  | 5800 nM | 800 nM | 800 nM | 6600 nM |  | IC50 (A2780; [10]): 115 nM; IC50 (A2780cisR [1]; [11]): 390 nM; IC50 (CH1; [12]): 165 nM; IC50 (CH1cisR; [13]): 180 nM; IC50 (SKOV-3; [14]): 540 nM; CC50 (M14): 800 nM; CC50 (SF-539): 6800 nM; CC50 (SNB-75): 5400 nM; CC50 (MDA-N): 600 nM; CC50 (NCI-H522): 5000 nM
3 | N.N.[Cl][Pt][Cl] [Cisplatin, reference compound] |  |  |  |  |  |  |  |  |  |  |  |  |  | IC50 ([2]; 96 hours at 37° C., Sulforhodamine B): 265 nM; IC50 (A2780cisR [3]; cisplatin-resistant subline, 96 hours at 37° C., Sulforhodamine B, read-out: IC50 A2780cis^a): 8400 nM
4 | COC(=O)CC1=CN2C(=O)c3cc(OC)c(OC)cc3N=C[C@@H]2C1 [UP2065 (42)] | 360 nM | 460 nM | 115 nM | 150 nM | 450 nM |  | 4700 nM |  | 4000 nM | 800 nM | 800 nM |  | 3500 nM | 
5 | C=C1C[C@H]2C=Nc3cc(OC)c(OC)cc3C(=O)N2C1 [UP2064 (74), (11aS)-7,8-Dimethoxy-2-methylidene-1,2,3,11a-tetrahydro-5H-pyrrolo[2,1-c][1.4]benzodiazepin-5-one] | 150 nM | 360 nM | 66 nM | 84 nM | 390 nM | 600 nM | 900 nM |  | 600 nM | 800 nM | 2300 nM | 2600 nM | 1700 nM | CC50 (UACC-257): 7400 nM
6 | COc1cc2c(cc1OCCCOc1cc3c(cc1OC)C(=O)N1CCC[C@@H]1C=N3)N=C[C@@H]1CCCN1C2=O [DSB-120, reference compound] |  |  |  |  |  |  |  |  |  |  |  |  |  | IC50 ([2]; Homo sapiens, A2780, 96 hours): 7.2 nM; IC50 (A2780cisR [3]; Homo sapiens, A2780cisR, 96 h, read-out: IC50 A2780cisR): 210 nM; IC50 (A2780cisR [3]; Homo sapiens, A2780cisR, 96 h, read-out: IC50 A2780cis^a): 210 nM; Induced ΔTa after incubation at 37° C. for 0 h (calf thymus DNA; pH 7.00, 0 h): 10.2 °C; Induced ΔTa after incubation at 37° C. for 4 h (calf thymus DNA; pH 7.00, 4 h): 13.1 °C; Induced ΔTa after incubation at 37° C. for 18 h (calf thymus DNA; pH 7.00, 18 h): 15.1 °C
7 | COc1cc2c(cc1OCc1ccccc1)N=C[C@@H]1CC(CCOC(C)=O)=CN1C2=O [UP2051 (31), (11aS)-2-(Acyloxy-2-ethyl)-8-benzyloxy-7-methoxy-1,2,3,11a-tetrahydro-5H-pyrrolo[2,1-c][1,4]benzodiazepin-5-one] |  |  |  |  |  |  | 5100 nM | 5200 nM |  | 800 nM |  |  | 7600 nM | IC50 (A2780; [10]): 100 nM; IC50 (A2780cisR [1]; [11]): 270 nM; IC50 (CH1; [12]): 105 nM; IC50 (CH1cisR; [13]): 160 nM; IC50 (SKOV-3; [14]): 460 nM; CC50 (NCI-H23): 9300 nM
8 | O=C1c2cc(-c3ccccc3)ccc2N=C[C@@H]2CCCN12 [UP2026 (136), (11aS)-7-Phenyl-1,2,3,11a-tetrahydro-5H-pyrrolo[2,1-c][1,4]benzodiazepin-5-one] | 1150 nM | 3700 nM | 1500 nM | 1450 nM | 4900 nM | 6600 nM | 6100 nM | 6400 nM | 8800 nM | 7600 nM | 6300 nM | 7100 nM | 7400 nM | cytotoxicity in the CNS cell line panel ([4]; CNS panel): inactive; CC50 (M14): 7800 nM; CC50 (UACC-257): 7700 nM; CC50 (NCI-H522): 7800 nM; CC50 (SK-MEL-5): 9000 nM
9 | O=C1c2cc(-c3cccc([N+](=O)[O-])c3)ccc2N=C[C@@H]2CCCN12 [UP2029 (140), (11aS)-7-(3′-Nitrophenyl)-1,2,3,11a-tetrahydro-5H-pyrrolo[2,1-c][1,4]benzodiazepin-5-one] | 34500 nM | 32000 nM | 22500 nM | 14000 nM | 1400 nM |  |  |  |  |  |  |  |  | cytotoxic activity (LC50 below 10 μM) ([4]; all panels): completely abolished cytotoxic activity
